# Measurements reported in US8357529B2, “Methods of in vitro protein synthesis” (The Board of Trustees of the Leland Stanford Junior …, priority 2002, dated 2013).
# Read-outs that look alike come from different tables or passages of the source.
# Columns and labels:
# Format in all cases: biochemical, Escherichia coli
# [1] = test system: protein synthesis in E. coli S30 extract, PANOx system; test: Cell-free protein synthesis in the PANOx system (standard reaction mixture)
# Experimental: A standard reaction mixture for a coupled transcription-translation reaction, herein referred to as the PANOx system (Kim and Swartz (2001), supra.) contains the following components: 57 mM HEPES-KOH (pH7.5), 1.2 mM ATP, 0.85 mM each of GTP, UTP and CTP, 1 mM DTT, 200 mM potassium glutamate, 80 mM ammonium acetate, 16 mM magnesium acetate, 34 μg/ml folinic acid, 170.6 μg/ml E. coli tRNA mixture, 13.3 μg/ml plasmid, 100 μg/ml T7 RNA polymerase, 2 mM each of 20 unlabeled amino acids, 11 μM [^14C]leucine, 2% Poly(ethylene glycol) 8000, 33 mM PEP, 0.33 mM nicotinamide adenine dinucleotide, 0.26 mM Coenzyme A, 2.7 mM sodium oxalate and 0.24 volumes of S30 extract. Prokaryotic cell-free protein synthesis is performed using a crude S30 extract derived from Escherichia coli K12 (strain A19 ΔtonA ΔtnaA ΔspeA ΔendA met+), with slight modifications from the protocol of Pratt, J. M. 1984. (Coupled transcription-translation in prokaryotic cell-free systems. In Transciption and translation: a practical approach. Hanes, B. D., and S. J. Higgins. (Eds.). p. 179-209. IRL Press, New York.) T7 RNA polymerase was prepared from E. coli strain BL21 (pAR1219) according to the procedures of Davanloo et al. 1984. (Cloning and expression of the gene for bacteriophage T7 RNA polymerase. Proc Natl Acad Sci USA 81:2035-2039.)
# (§1) Reactions were incubated at 37° C. for 5-6 hours. The amount of synthesized protein is estimated from the measured TCA-insoluble radioactivities using a liquid scintillation counter (Beckman LS3801). (Kim et al. 1996). Soluble protein yields were determined as previously described. (Kim and Swartz 2000).
# [2] = test system: CAT expression in E. coli S30 extract cell-free protein synthesis
# Experimental: as §1
# [3] = test system: oxidative phosphorylation (electron transport chain); test: CAT synthesis in new system with inhibitor of oxidative phosphorylation, oxygen or argon headspace; details: 20 μl batch, 37° C., 5 hours
# Experimental: In seeking to understand how this yield was accomplished, inhibitors of oxidative phosphorylation were tested to establish that this process was partially responsible for the protein production capability of this new technology. […] HQNO inhibits the electron transport chain part of oxidative phosphorylation. All cases are 20 μl batch reactions, and were incubated at 37° C. for 5 hours. The head spaces of the batch reactors were filled with either oxygen or argon, an inert gas. […]. Furthermore, protein synthesis should be unaffected upon the addition of HQNO in the cases where argon is present and oxygen is not available.
smiles,measurement,setting,value
O=C(CC(=O)C(F)(F)F)c1cccs1 [thenoyltrifluoroacetone],protein synthesis yields in the PANOx system with inhibitor of oxidative phosphorylation,[1]; PANOx system,unaffected
[N-]=[N+]=[N-] [azide],protein synthesis yields in the PANOx system with inhibitor of oxidative phosphorylation,[1],unaffected
"O=[N+]([O-])c1ccc(O)c([N+](=O)[O-])c1 [2,4-dinitrophenol]",protein synthesis yields in the PANOx system with inhibitor of oxidative phosphorylation,[1]; PANOx system,unaffected
CC(=O)[O-].CC(=O)[O-].[Mg+2] [magnesium acetate],optimal magnesium value in the standard reaction mixture,[1],19.3 mM
N#CC(C#N)=NNc1cccc(Cl)c1 [carbonyl-cyanide-m-chlorophenylhydrazone],protein synthesis yields in the PANOx system with inhibitor of oxidative phosphorylation,[1]; PANOx system,unaffected
[Mg+2] [magnesium],optimum magnesium concentration for protein expression,"[2]; new environment, with 33 mM sodium pyruvate, includes Mg from cell extract",approximately 11 mM
"CCCCCCCc1cc(O)c2ccccc2[n+]1[O-] [HQNO, 2-heptyl-4-hydroxyquinoline-N-oxide]",CAT synthesis after inhibitor addition,[3]; argon headspace,unaffected
same,CAT synthesis after inhibitor addition,"[3]; presence of oxygen, with or without pyruvate",substantially decreases
N[C@@H](CCC(=O)[O-])C(=O)[O-].[Mg+2] [magnesium glutamate],optimal magnesium value in the standard reaction mixture,"[1]; standard reaction mixture, includes Mg from cell extract",23.3 mM
"CC(C)(COP(=O)(O)OP(=O)(O)OC[C@H]1O[C@@H](n2cnc3c(N)ncnc32)[C@H](O)[C@@H]1OP(=O)(O)O)[C@@H](O)C(=O)NCCC(=O)NCCS [CoA, Coenzyme A]",effect of removal of the cofactor on relative protein production,"[2]; Cytomim system, CAT, 15 μl, 6 hours",no significant effect
